PMC4658394 (ChemMedChem, 2015)

Legend:
HDAC-6 = molecular target: T1, HDAC-6 (Homo sapiens, UniProt Q9UBN7); assay: HDAC-6 fluorogenic assay with competing metalloprotein MT; format: biochemical; settings: 22 nM SAHA, HDAC-6 0.16 μM, various concentrations of MT
T1 sequence (Q9UBN7 1-1215): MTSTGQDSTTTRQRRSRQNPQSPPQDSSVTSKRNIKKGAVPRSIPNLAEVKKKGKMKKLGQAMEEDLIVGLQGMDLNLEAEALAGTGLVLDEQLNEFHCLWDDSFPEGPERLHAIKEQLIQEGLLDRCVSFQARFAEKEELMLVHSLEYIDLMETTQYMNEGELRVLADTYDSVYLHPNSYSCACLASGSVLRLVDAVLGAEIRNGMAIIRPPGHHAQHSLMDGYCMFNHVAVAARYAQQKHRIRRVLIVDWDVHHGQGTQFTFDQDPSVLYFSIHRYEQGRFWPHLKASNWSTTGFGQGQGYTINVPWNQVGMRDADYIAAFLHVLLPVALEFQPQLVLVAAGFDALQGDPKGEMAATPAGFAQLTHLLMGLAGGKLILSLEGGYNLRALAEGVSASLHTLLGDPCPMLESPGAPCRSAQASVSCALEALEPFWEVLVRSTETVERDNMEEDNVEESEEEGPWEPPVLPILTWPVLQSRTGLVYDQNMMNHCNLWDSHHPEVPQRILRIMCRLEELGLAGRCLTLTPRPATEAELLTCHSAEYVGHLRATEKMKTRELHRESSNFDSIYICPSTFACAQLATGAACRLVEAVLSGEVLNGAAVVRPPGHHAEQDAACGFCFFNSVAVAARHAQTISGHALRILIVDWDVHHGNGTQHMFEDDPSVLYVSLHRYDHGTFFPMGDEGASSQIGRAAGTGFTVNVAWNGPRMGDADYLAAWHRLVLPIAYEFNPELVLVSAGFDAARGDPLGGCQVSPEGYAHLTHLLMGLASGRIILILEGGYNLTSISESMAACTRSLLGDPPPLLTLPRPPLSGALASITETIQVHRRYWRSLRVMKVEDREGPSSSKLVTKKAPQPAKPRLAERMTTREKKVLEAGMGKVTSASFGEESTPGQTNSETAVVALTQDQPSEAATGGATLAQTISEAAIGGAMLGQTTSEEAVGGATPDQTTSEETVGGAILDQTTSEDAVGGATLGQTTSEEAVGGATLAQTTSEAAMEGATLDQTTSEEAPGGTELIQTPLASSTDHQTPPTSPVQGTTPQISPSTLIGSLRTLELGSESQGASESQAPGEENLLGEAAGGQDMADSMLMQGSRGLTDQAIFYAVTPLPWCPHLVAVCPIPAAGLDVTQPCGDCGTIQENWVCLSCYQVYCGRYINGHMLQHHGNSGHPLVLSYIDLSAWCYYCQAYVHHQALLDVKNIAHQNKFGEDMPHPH

HDAC-1 = HDAC-1 (Homo sapiens, UniProt Q13547); assay: HDAC-1 fluorogenic assay with competing metalloprotein MT; format: biochemical; settings: 53 nM SAHA, HDAC-1 0.25 μM, various concentrations of MT
MMP-12 = MMP-12 (Homo sapiens, UniProt P39900); assay: MMP-12 fluorogenic substrate assay with competing metalloprotein MT; settings: MMP-12 0.68 nM
MMP-2 = molecular target: T2, MMP-2 (Homo sapiens, UniProt P08253); assay: MMP-2 fluorogenic substrate assay with competing metalloproteins; format: biochemical; settings: MMP-2 2.7 nM
T2 sequence (P08253 110-660): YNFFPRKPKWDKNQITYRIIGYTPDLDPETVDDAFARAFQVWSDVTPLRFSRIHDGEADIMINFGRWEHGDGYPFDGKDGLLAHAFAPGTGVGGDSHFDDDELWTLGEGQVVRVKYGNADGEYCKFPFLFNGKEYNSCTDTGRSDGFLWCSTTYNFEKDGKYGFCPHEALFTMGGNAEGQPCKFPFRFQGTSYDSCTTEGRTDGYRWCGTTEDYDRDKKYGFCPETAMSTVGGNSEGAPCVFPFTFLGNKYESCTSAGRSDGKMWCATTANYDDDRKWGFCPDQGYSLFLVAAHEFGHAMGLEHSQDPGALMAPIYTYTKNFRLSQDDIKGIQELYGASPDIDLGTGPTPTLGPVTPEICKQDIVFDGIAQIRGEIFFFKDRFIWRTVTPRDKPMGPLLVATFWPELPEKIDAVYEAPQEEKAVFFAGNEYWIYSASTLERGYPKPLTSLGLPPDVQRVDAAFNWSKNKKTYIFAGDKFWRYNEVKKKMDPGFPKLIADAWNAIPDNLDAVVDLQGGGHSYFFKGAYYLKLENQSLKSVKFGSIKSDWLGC

MMP-12, sequence (P39900 106-470): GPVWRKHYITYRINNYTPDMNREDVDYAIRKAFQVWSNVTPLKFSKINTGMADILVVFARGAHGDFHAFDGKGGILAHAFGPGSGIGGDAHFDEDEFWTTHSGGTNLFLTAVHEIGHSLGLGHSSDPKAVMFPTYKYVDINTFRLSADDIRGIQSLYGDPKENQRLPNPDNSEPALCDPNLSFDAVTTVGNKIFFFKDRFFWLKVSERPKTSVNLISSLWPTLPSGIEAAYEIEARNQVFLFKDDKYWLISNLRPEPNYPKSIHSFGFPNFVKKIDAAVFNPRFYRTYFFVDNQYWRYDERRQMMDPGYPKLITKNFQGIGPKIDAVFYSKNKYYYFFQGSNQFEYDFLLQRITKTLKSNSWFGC
HDAC-1, sequence (Q13547 whole entry): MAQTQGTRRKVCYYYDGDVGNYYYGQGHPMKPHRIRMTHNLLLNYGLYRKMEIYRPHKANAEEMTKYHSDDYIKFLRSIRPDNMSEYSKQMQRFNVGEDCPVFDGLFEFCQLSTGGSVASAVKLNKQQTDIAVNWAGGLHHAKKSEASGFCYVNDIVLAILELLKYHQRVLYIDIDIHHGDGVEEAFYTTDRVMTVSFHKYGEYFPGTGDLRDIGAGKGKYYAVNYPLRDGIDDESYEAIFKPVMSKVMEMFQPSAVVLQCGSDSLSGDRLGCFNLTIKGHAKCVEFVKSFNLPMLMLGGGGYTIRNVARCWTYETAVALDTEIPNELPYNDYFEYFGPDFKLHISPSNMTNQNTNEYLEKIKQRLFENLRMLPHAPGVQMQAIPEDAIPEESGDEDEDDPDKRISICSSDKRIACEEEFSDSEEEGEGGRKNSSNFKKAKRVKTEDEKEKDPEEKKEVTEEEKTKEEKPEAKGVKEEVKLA

With `O=C(CCCCCCC(=O)Nc1ccccc1)NO` [SAHA, suberolylanilide hydroxamic acid] the “change in SAHA activity against HDAC-6 with increasing MT” value (HDAC-6) was “no substantial decrease” and the “change in SAHA activity against HDAC-1 with increasing MT” value (HDAC-1) was “no substantial decrease”.

With `O=C(NCc1ccc(-c2ccccc2)cc1)c1cccc(=O)n1O` [1,2-HOPO-2] the “effect of large excess of MT on activity against MMP-12” value (MMP-12; 30 nM inhibitor, up to 9 μM MT (300 equiv over inhibitor)) was “did not perturb the activity” and the IC50 (MMP-12; read-out: IC50 against MMP-12) was 30 nM.

In the case of `COc1ccc(S(=O)(=O)N(Cc2cccnc2)[C@@H](C(=O)NO)C(C)C)cc1` [CGS], the “MMP-2 inhibition in the presence of combinations of competing proteins” value (MMP-2; CGS 3 nM, MT, Mb, Tf, hCAII combinations 400 nM each) is reported as “no drop in inhibition”, the “specificity for MMP-2 in the presence of excess MT” value (MMP-2; CGS 3 nM or NSA 30 nM, MT up to 50 equiv over MPi) is reported as “maintain their specificity” and the “effect of Mb, Tf or hCAII as competing protein on MMP-2 inhibition” value (MMP-2; NSA 30 nM or CGS 3 nM, up to 166 equiv over CGS, up to 50 equiv over NSA) is reported as “not titrating the MPi away from the MMP-2 target”.
